Calls of active or inactive are those of the source.

Usually EC50 stands for the concentration at which the effect is half-maximal. One may read the AC50 as the concentration giving half of the maximal activity seen.

Test [1] in a line: cytotoxicity toward NIH3T3 fibroblasts, dose response, counter-screen, cell-based, ATP luminescence, mouse fibroblasts (AID 2010).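 Note: cells exposed to compound for about 90 hours before reading.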 The format is functional.
Test [2] is described as follows: inhibitors of intracellular T. cruzi replication, confirmation, NIH3T3 host cells, beta-gal luminescence (AID 2044).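 Note: intracellular parasites grown in NIH/3T3 mouse fibroblasts as host cells; luminescent beta-galactosidase reporter signal from transgenic T. cruzi replicating inside host cells; inhibitors lower the luminescence signal.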 It is filed as functional, cell-based.
In test [3] the test system is H4. Put plainly: Luminescence Cell-Based Dose Response HTS to Identify Activators of 5'UTR Stem-Loop Driven Prion Protein mRNA Translation in H4 Neuroglioblastoma Cells. [Related pubchem assays: 1829 (Project Summary), 1814 (Primary HTS)]. As to conditions: Homo sapiens. It is filed as functional.
The nature of test [4]: Luminescence Cell-Based Dose Confirmation HTS to Identify Activators of 5'UTR Stem-Loop Driven Alpha-Synuclein mRNA Translation in H4 Neuroglioblastoma Cells. [Related pubchem assays: 1829 (Project Summary), 1814 (Primary HTS)]. It is filed as functional.
Test [5] in a line: Luminescence Cell-Based Dose Response HTS to Identify Activators of Luciferase Translation or Activity in H4 […] Cells. [Related pubchem assays: 1829 (Project Summary), 1814 (Primary HTS)]. It is filed as functional.
For test [6], the target named is Cytochrome P450 2C19 (Homo sapiens, UniProt P33261). Briefly: Cytochrome panel assay with activity outcomes. Panel member name: p450-cyp2c19 Compounds with AC50 equal or less than 10 uM are considered active. It is filed as functional. The following applies: read-out: AC50.
Test [7] addresses Cytochrome P450 2D6 (Homo sapiens, UniProt P10635).
Test [8] concerns the target Cytochrome P450 3A4 (Homo sapiens, UniProt P08684).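 Note: CYP3A4 tested as one member of a cytochrome P450 panel screen.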
The target of test [9] is Cytochrome P450 2C9 (Homo sapiens, UniProt P11712).
Test [10] addresses T1, Cytochrome P450 1A2 (Homo sapiens, UniProt P05177).
T1 sequence (P05177 whole entry): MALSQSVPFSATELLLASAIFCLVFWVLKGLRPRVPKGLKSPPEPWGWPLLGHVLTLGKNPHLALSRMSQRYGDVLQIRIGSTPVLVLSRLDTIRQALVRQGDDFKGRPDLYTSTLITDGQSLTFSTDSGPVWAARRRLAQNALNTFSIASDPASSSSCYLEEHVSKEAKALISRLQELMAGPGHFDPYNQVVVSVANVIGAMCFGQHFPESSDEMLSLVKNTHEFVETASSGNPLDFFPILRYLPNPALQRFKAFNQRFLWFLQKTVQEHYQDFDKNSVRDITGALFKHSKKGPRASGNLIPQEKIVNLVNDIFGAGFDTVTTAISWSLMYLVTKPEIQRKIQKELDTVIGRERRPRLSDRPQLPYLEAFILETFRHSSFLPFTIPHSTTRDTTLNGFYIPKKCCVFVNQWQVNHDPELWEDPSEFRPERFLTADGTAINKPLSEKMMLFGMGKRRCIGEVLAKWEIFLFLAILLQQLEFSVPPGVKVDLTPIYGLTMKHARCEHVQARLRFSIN

Chain of Cytochrome P450 2D6 (P10635 whole entry): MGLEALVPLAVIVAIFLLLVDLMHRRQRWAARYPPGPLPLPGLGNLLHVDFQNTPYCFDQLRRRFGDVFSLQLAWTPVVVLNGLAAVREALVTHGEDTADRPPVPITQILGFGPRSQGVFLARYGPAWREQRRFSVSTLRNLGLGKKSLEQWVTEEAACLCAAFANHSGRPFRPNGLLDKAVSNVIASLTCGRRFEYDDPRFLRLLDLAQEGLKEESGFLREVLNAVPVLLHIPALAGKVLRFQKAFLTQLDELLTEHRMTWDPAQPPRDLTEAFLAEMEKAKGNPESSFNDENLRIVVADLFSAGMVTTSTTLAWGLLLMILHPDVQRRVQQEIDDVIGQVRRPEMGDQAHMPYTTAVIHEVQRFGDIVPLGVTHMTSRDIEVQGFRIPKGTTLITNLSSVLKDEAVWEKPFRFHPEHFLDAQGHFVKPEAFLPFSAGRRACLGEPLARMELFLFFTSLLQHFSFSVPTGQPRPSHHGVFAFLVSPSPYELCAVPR
Chain of Cytochrome P450 2C19 (P33261 whole entry): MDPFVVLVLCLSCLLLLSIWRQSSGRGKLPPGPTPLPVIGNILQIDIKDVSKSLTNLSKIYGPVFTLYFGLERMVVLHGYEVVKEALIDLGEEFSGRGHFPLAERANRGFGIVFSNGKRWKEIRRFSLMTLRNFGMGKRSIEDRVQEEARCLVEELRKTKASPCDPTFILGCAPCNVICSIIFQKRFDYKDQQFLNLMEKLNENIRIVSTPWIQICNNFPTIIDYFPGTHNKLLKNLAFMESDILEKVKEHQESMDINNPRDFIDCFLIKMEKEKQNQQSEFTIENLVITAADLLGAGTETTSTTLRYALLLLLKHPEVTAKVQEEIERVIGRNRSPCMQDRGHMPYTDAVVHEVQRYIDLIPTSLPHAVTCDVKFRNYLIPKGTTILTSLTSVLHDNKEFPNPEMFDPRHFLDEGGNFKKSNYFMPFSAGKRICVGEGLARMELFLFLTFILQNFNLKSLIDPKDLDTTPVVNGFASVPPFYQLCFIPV
Chain of Cytochrome P450 2C9 (P11712 whole entry): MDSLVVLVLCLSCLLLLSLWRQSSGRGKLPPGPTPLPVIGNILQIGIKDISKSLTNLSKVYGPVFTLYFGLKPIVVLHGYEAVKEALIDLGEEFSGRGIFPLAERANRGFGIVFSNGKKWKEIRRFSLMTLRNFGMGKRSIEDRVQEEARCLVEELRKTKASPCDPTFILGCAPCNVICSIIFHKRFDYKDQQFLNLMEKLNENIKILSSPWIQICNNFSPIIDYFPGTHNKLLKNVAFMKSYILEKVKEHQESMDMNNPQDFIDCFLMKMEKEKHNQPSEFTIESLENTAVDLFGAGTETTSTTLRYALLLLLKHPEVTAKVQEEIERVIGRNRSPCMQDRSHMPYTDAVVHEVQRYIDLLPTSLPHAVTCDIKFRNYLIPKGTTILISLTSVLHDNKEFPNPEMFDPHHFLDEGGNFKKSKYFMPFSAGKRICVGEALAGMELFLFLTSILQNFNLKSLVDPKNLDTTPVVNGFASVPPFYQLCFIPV
Chain of Cytochrome P450 3A4 (P08684 whole entry): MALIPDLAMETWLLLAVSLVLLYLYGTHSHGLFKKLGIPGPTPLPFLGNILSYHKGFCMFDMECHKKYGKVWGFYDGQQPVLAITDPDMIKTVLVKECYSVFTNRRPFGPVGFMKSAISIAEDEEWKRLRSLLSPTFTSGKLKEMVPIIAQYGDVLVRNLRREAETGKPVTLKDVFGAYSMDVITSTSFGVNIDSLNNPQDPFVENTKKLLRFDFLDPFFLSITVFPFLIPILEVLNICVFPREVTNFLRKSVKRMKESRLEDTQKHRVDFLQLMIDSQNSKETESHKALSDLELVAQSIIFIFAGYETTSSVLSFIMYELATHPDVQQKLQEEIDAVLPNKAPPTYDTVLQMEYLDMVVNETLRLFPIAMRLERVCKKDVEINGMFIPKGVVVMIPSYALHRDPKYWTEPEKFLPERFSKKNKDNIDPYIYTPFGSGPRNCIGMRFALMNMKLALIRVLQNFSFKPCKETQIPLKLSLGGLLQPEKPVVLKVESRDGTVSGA

`Cc1ccc(Cl)cc1N1CCN(Cc2cc3c(cc2O)CCC3)CC1`: the EC50 was > 60 µM (not active) in test [1] and 2.65 µM (active) in [2].
In the case of `O=C(c1cc(-c2ccc3c(c2)OCO3)on1)N1CCN(c2ccccc2)CC1`, the EC50 in [3] is 4.67 µM (active); in test [4] it was 0.793 µM (active); in test [5] it was 0.817 µM (active).
With `c1ccc(NC2=Nc3ccccc3CC2)cc1`, the results for the EC50 in test [3], in [4] and in [5] were > 120 µM (not active), 10.9 µM (active) and 21.1 µM (active), respectively.
As to `CCn1c(=N)n(CC(=O)C23CC4CC(CC(C4)C2)C3)c2ccccc21`, the results for the EC50 in [1] and in [2] were > 60 µM (not active) and 0.223 µM (active), respectively.
As for `O=C(Nc1ccnc(-c2cccnc2)n1)c1ccccc1Cl`, the AC50 in test [6] is 14.1 µM (inconclusive); in [7], 11.2 µM (inconclusive).
As to `CC(C)NC(=O)CSc1nnc(C2CC2)n1-c1ccccc1`, the AC50 in test [8] is 25.1 µM (inconclusive); in [9], 31.6 µM (inconclusive).
In the case of `Cc1ccc(-c2nc3ncccc3o2)cc1NC(=O)c1ccc([N+](=O)[O-])o1`, the EC50 in test [3], in test [4] and in test [5] was > 120 µM (not active) in each case.
Consider `N=C1c2ccccc2CN1NC(=O)c1ccc(F)cc1`, for which the results for the AC50 in test [6] and in test [9] were 28.2 µM (inconclusive) and 17.8 µM (inconclusive), respectively.
For `CN(C)S(=O)(=O)c1ccc2c(c1)/C(=C/c1cc3c([nH]1)CCCC3)C(=O)N2`, the AC50 in [6] was 7.94 µM (inconclusive); in test [7], 31.6 µM (inconclusive); in test [9] it was 10 µM (inconclusive).
Take `CC=C(/C(=C/C)c1ccc(O)cc1)c1ccc(O)cc1` [DIENESTROL]: the AC50 in test [7] and in test [10] was 15.8 µM (inconclusive) each time.
`Cc1ccc(C2CC(C(F)(F)F)n3nc(C(=O)NCCN4CCOCC4)cc3N2)cc1` (stereo unspecified): the AC50 in [10] was 1 µM (inconclusive); in [9], 12.6 µM (inconclusive).
As for `c1nc(NC2CC2)c2cc(-c3ccoc3)ccc2n1`, the figures for the AC50 in [6], in test [7] and in test [8] were 20 µM (inconclusive), 39.8 µM (inconclusive) and 5.01 µM (inconclusive), respectively.
Consider `COc1ccc(N2CCN(c3nc(Nc4ccc(F)cc4)nc(OC)n3)CC2)cc1`, for which the AC50 was 3.16 µM (inconclusive) in [8], 3.16 µM (inconclusive) in test [10] and 3.55 µM (inconclusive) in test [9].
For `CCc1nnc(SCc2ccc(OC(C)C)cc2)n1N`, the results for the AC50 in test [8], in [10] and in test [9] were 14.1 µM (inconclusive), 15.8 µM (inconclusive) and 0.00562 µM (inconclusive), respectively.
`CCOC(=O)c1c(NC(=O)C[n+]2ccc(N(C)C)cc2)sc(C)c1C`: the EC50 was > 60 µM (not active) in test [1] and 1.44 µM (active) in test [2].
`O=C(CCCCn1c(=S)[nH]c2ccsc2c1=O)NCc1ccco1`: the AC50 in test [7] is 39.8 µM (inconclusive).
With `CCOC(=O)c1[nH]c(C(=O)O)c(CCN(CC)CC)c1C`, the AC50 in test [7] was 3.98 µM (inconclusive); in test [10] it was 39.8 µM (inconclusive).
Take `CC1CCCCC12NC(=O)N(CC(=O)NC(=O)Nc1ccc3c(c1)OCCO3)C2=O` (stereo unspecified): the EC50 was 0.117 µM (active) in test [3], 0.111 µM (active) in [4] and 0.483 µM (active) in test [5].
Turning to `O=C(NCCN1CCOCC1)c1ccc2ccccc2c1`, the AC50 in test [7] is 15.8 µM (inconclusive); in test [10], 31.6 µM (inconclusive).
Turning to `COC(=O)c1cc(Br)c(=O)n(CCN2CCCC2)c1`, the AC50 in [6] is 39.8 µM (inconclusive); in test [7], 17.8 µM (inconclusive); in [10], 12.6 µM (inconclusive); in test [9], 39.8 µM (inconclusive).
With `COc1ccccc1CNc1cc(-c2c(C)noc2C)ncn1`, the AC50 in [6] was 25.1 µM (inconclusive); in test [7], 25.1 µM (inconclusive); in test [8] it was 39.8 µM (inconclusive).
For the molecule `COc1ccc(-c2cc(C#N)nc(N3CCN(C)CC3)n2)cc1`, the EC50 in test [1] was > 30 µM (not active); in [2], 1.95 µM (active).
For the molecule `COC(=O)N1CCC[C@@]2(CCN(C(=O)Nc3cccc(F)c3)C2)C1`, the AC50 is 12.6 µM (inconclusive) in test [8], 15.8 µM (inconclusive) in test [10] and 39.8 µM (inconclusive) in [9].
In the case of `COC(=O)c1ccc(NC(=S)N2CCN(Cc3cccc(C)c3)CC2)cc1`, in [7], the AC50 is 35.5 µM (inconclusive).
As to `S=C(NCCN1CCOCC1)Nc1ccc(-c2nc3ccccc3[nH]2)cc1`, the EC50 was 16.5 µM (active) in test [3], 16.3 µM (active) in test [4] and 10.7 µM (active) in test [5].
On to `Clc1cccc(Cl)c1/C=C/c1cc[nH]n1`, for which the EC50 in test [3] is 27 µM (active); in test [4], > 120 µM (not active); in test [5] it was 41.2 µM (active).
`CCCOC(=O)c1c(NC(=O)/C=C/c2cnn(C)c2C)sc(C(=O)OCC)c1C`: the AC50 was 10 µM (inconclusive) in [6], 15.8 µM (inconclusive) in [8], 17.8 µM (inconclusive) in test [10] and 39.8 µM (inconclusive) in [9].
As to `O=C(CCc1ccccc1)Nc1ccc(Cl)cn1`, the EC50 was 19.8 µM (active) in [3], > 120 µM (not active) in [4] and 1.18 µM (active) in test [5].
On to `CC1Cc2ccccc2N1C(=O)CSc1nnnn1C(C)C` (stereo unspecified), for which the AC50 was 15.8 µM (inconclusive) in test [8], 15.8 µM (inconclusive) in test [10] and 14.1 µM (inconclusive) in test [9].
As to `COc1ccc(C2=C/C(=C\c3ccccc3OC(C)=O)C(=O)O2)cc1`, the EC50 in test [3] was 48.4 µM (active); in [4], 18.6 µM (active); in [5], 90 µM (active).
As for `CC(/C=N/NC(=O)Cc1cccs1)=C\c1ccco1`, in test [7], the AC50 was 14.1 µM (inconclusive).
Regarding `COCCn1c(C2CCCCC2)nc2sc3ccccc3c(=O)c2c1=O`, the EC50 in test [1] was > 60 µM (not active); in test [2] it was 2.28 µM (active).
In the case of `CC1CCc2c(nc3ncnn3c2NCCc2ccccc2F)C1` (stereo unspecified), the EC50 in test [3], in [4] and in test [5] was > 120 µM (not active) each time.
Take `COc1ccc2c(c1)NC(C)(C)C=C2C`: the EC50 was > 60 µM (not active) in test [1] and 2.71 µM (active) in test [2].
For `Cn1nnnc1SC1CC(=O)N(c2ccccc2)C1=O` (stereo unspecified), the EC50 in [1] is 7.1 µM (active); in test [2], 3.7 µM (active).
On to `COc1ccc(C2CC(c3ccccc3)=NN2C(=O)COC(=O)c2nc3nc(C)cc(C)n3n2)cc1` (stereo unspecified), for which the values for the EC50 in [1] and in test [2] were > 60 µM (not active) and 3.19 µM (active), respectively.
Turning to `Cc1nn(-c2ccccc2)c(Cl)c1C(=O)Nc1c(C)n(C)n(-c2ccccc2)c1=O`, the results for the AC50 in [10] and in test [9] were 5.01 µM (inconclusive) and 20 µM (inconclusive), respectively.
Take `COC(=O)C1=C(N)Oc2cc(C)n(CC3CCCO3)c(=O)c2C1c1ccccc1OC` (stereo unspecified): the AC50 was 22.4 µM (inconclusive) in test [6] and 28.2 µM (inconclusive) in test [9].
As to `CCCCOc1ccc(-c2nnn(CC(=O)NCc3ccco3)n2)cc1`, the EC50 in test [3] was 10 µM (active); in [4] it was > 120 µM (not active); in [5], 24.3 µM (active).
